Tests used:
[1] = Binding constant with Fe^2+ ions by UV/Vis titration
Procedure: (§1) The association of tryptanthrin derivatives with ferrous and ferric ions was studied by UV/Vis spectroscopy in aqueous solution (water/DMSO, 99:1, v/v). […] Association constants (K) were calculated from absorbance changes (AA) in the spectral maximum of the derivative and in the spectral maximum of its complexes with Fe^2+/3+ ions by regression analysis. The concentration of tryptanthrin derivatives was 100 μM. The concentration of Fe^2+ and Fe^3+ ions fluctuated in the range of 0-5 mM. UV/Vis spectra were measured with a Shimadzu spectrophotometer in the range 220-900 nm with a step of 1 nm in a 1 cm plastic cuvette at a scanning speed of 300 nm.min^-1. The effect of different concentrations of Fe ions on the absorbance of substance 1 (PAA-TSC) is shown in FIGS. 5 and 6; that for substance 5 […]-TSC) in FIGS. 7 and 8.

[2] = Interaction of tryptanthrin derivatives with transition metal ions (UV/Vis spectroscopy); type: binding; conditions: receptor 100 μM, ion 5000 μM
Procedure: First, the interaction of tryptanthrin derivatives 1 and 5 with metal ions was studied using UV/Vis spectroscopy. The receptor concentration was 100 μM and the ion concentration was 5000 μM.

RNA = test: Interaction with RNA by UV/Vis titration; type: binding
DNA from salmon sperm = test: Interaction with DNA by UV/Vis titration; type: binding
SARS-COV-2 = test: Antiviral effect: SARS-COV-2 RNA production in infected Vero cells (RT-qPCR of E-gene); type: cell-based; conditions: Vero in vitro model; 0-10 μM; 24 and 48 hours
Procedure: The cells in question (Vero cell line from African green monkey kidney; 1.5×10^5 cells per well) were infected with a SARS-COV-2 isolate provided by the Bioconservation Section of Techonin. The infectious inoculum contained 2.38×10^7 copies of the SARS-COV-2 E-gene. After 1 h inoculation, cells were supplemented with 1 ml of Dulbecco's modified Eagle's medium containing 2% fetal bovine serum (2% FBS-DMEM) and increasing concentrations (0-10 μM) of tryptanthrin derivatives 1 (PAA-TSC) and 5 (T8H-TSC), resp. After 24 and 48 hours of incubation, the growth of SARS-COV-2 was characterized in an aliquot of the culture supernatant by one-step RT-qPCR.
Viral RNA was isolated from 200 μl culture supernatant using magnetic beads. SARS-CoV-2 RNA was quantified by amplifying the E-gene of SARS-COV-2 (Generi Biotech) using the SensiFast Probe One-Step Kit (BioLine) and Light Cycler 480 II (Roche) using absolute quantification and calibration curve.

[3] = Binding constant with Fe^3+ ions by UV/Vis titration
Procedure: as §1

[4] = stoichiometry (ion:ligand) 1:1, water/DMSO 99:1, derivative 100 μM
[5] = stoichiometry (NK:ligand) 1:2, phosphate buffer pH 7.00

SMILES	Log (K) association constant [1, 4]	Log (K) association constant ([1]; stoichiometry (ion:ligand) 2:1, water/DMSO 99:1, derivative 100 μM)	absorbance changes after addition of metal ions (selectivity for Fe^2+/Fe^3+) [2]	Log (K) association constant (RNA; [5])	Log (K) association constant (DNA from salmon sperm; [5])	inhibition of virus particle / CoV-2 RNA production (SARS-COV-2)	Log (K) association constant (RNA; stoichiometry (NK:ligand) 2:1, phosphate buffer pH 7.00)	Log (K) association constant (DNA from salmon sperm; stoichiometry (NK:ligand) 1:1, phosphate buffer pH 7.00)	Log (K) association constant [3, 4]	Log (K) association constant ([3]; stoichiometry (ion:ligand) 1:2, water/DMSO 99:1, derivative 100 μM)
NC(=S)NN=C1c2ccccc2-n2c1nc1ccccc1c2=O [derivative 5]	4.9	7.1	significant absorbance changes were observed only in the case of ferrous and ferric ions	7.3	6.0	inhibition of viral particle production	–	–	–	–
CC(CC1(O)c2ccccc2-n2c1nc1ccccc1c2=O)=NNC(N)=S (mixture of isomers) [derivative 1]	1.5	–	significant absorbance changes were observed only in the case of ferrous and ferric ions	–	–	inhibition of virus particle production	8.7	7.4	6.0	10.2
